Source: BindingDB's records for doi:10.1016/j.str.2004.01.005 (University of Dundee, 2004)

Legend:
Assay in all cases: PDK1 Kinase Activity Assay
Settings in all cases: pH 7.5; 30 °C
[1] = molecular target: T1, 3-phosphoinositide-dependent protein kinase 1 [51-359,A162V] (Homo sapiens, UniProt O15530, A162V)
T1 construct: 51-359

[2] = molecular target: T2, 3-phosphoinositide-dependent protein kinase 1 [51-359,E166D] (Homo sapiens, UniProt O15530, E166D)
T2 construct: 51-359

[3] = molecular target: T3, 3-phosphoinositide-dependent protein kinase 1 [51-359,L159M] (Homo sapiens, UniProt O15530, L159M)
T3 construct: 51-359
T3 sequence (O15530 51-359 L159M): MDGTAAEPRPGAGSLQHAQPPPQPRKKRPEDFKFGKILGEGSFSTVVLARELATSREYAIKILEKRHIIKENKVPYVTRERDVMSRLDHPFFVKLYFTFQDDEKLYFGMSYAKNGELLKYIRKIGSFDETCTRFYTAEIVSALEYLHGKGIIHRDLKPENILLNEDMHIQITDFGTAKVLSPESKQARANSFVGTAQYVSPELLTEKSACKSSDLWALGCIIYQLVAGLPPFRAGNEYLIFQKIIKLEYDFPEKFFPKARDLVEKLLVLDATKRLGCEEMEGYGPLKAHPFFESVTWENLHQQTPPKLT

[4] = molecular target: T4, 3-phosphoinositide-dependent protein kinase 1 [51-359,T222A] (Homo sapiens, UniProt O15530, T222A)
T4 construct: 51-359
T4 sequence (O15530 51-359 T222A): as the sequence (O15530 51-359 L159M) above, with M109L, T172A counted along it

[5] = molecular target: T5, 3-phosphoinositide-dependent protein kinase 1 [51-359,V143T,T222A] (Homo sapiens, UniProt O15530, T222A/V143T)
T5 construct: 51-359
T5 sequence (O15530 51-359 V143T/T222A): as the sequence (O15530 51-359 L159M) above, with V93T, M109L, T172A counted along it

[6] = molecular target: T6, 3-phosphoinositide-dependent protein kinase 1 [51-359,V143T] (Homo sapiens, UniProt O15530, V143T)
T6 construct: 51-359
T6 sequence (O15530 51-359 V143T): as the sequence (O15530 51-359 L159M) above, with V93T, M109L counted along it

[7] = molecular target: T7, 3-phosphoinositide-dependent protein kinase 1 [51-359] (Human, UniProt O15530)
T7 construct: 51-359
T7 sequence (O15530 whole entry): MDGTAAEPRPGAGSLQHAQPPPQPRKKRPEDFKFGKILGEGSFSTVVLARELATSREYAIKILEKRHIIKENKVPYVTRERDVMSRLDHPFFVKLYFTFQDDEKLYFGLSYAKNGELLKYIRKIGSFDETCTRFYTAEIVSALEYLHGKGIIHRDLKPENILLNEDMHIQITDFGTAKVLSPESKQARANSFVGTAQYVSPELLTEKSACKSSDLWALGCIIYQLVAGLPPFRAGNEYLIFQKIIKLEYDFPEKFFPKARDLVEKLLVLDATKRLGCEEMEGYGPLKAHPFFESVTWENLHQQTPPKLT

T1 sequence (O15530 51-359 A162V): as the sequence (O15530 51-359 L159M) above, with M109L, A112V counted along it
T2 sequence (O15530 51-359 E166D): as the sequence (O15530 51-359 L159M) above, with M109L, E116D counted along it

NCCCn1cc(C2=C(c3c[nH]c4ccccc34)C(=O)NC2=O)c2ccccc21 [Bisindolyl deriv. 19]
IC50 [1]: 3.4 µM
IC50 [2]: 5.7 µM
IC50 [3]: 3 µM
IC50 [4]: 3.8 µM
IC50 [5]: 2 µM
IC50 [6]: 2.5 µM
IC50 [7]: 4 µM

CN1CCCC1CCn1cc(C2=C(c3c[nH]c4ccccc34)C(=O)NC2=O)c2ccccc21 (stereo not given) [3-(1H-indol-3-yl)-4-{1-[2-(1-methylpyrrolidin-2-yl)ethyl]-1H-indol-3-yl}-2,5-dihydro-1H-pyrrole-2,5-dione]
IC50 [7]: 14 µM

CN(C)CCCn1cc(C2=C(c3c[nH]c4ccccc34)C(=O)NC2=O)c2ccccc21 [2-[1-(3-dimethylaminopropyl)-indol-3-yl]-3-(indol-3-yl)maleimide]
IC50 [7]: 9 µM

Cn1cc(C2=C(c3cn(CCCN)c4ccccc34)C(=O)NC2=O)c2ccccc21 [Ro 31-7549]
IC50 [7]: 1 µM
